Broadly, the IC50 is the point on the concentration scale where inhibition reaches its midpoint. Low values mean higher potency, high ones lower potency.

The structures appear in SMILES notation.

The target in this experiment is T1, human renin (Homo sapiens, UniProt P00797).
T1 construct: A human plasma pool is used as the source of both the substrate (angiotensinogen) and the enzyme (renin); from tissue; host or cells: pooled human plasma
T1 sequence (P00797 67-406): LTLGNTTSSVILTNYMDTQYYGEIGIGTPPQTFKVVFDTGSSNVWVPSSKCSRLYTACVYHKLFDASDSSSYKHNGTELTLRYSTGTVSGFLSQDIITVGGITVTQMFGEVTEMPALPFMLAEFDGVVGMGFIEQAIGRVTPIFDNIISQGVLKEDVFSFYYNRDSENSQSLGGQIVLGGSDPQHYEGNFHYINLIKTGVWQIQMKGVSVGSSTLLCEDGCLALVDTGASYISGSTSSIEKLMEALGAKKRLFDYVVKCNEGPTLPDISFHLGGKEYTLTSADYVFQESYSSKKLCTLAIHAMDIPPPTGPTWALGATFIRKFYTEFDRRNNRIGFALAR
Kind of experiment: plasma renin assay (inhibition of human renin; angiotensin I generated, measured by radioimmunoassay). In kind it is biochemical. Particulars: human plasma pool, pH 6.0, 2 h incubation at 37°. On the procedure: The assay is performed as follows: The test compound (i.e. the inhibitor) is dissolved in dimethylsulfoxide (1 mM stock solution) and diluted with an aqueous buffer solution of 270 mM 2-(N-morpholino)ethanesulfonic acid and 1% human serum albumin (pH 5.85, also containing dimercaprol and 8-hydroxyquinoline sulfate in accordance with the instructions of the RIA kit noted below) to give an assay mixture in which the final dimethylsulfoxide content is 1% (v/v).
A human plasma pool is used as the source of both the substrate (angiotensinogen) and the enzyme (renin). The reaction is initiated by the addition of 50 μL of human plasma pool to 50 μL of various concentrations of inhibitor in the 1% dimethylsulfoxide assay buffer. The plasma renin activity is measured by the amount of angiotensin I generated at pH 6.0 following a 2 h incubation at 37°.
Quantitation of angiotensin I is performed by radioimmunoassay (RIA kit from New England Nuclear-Dupont, Mississauga, ON, Canada). The enzymatic activity of renin is expressed in ng of angiotensin I generated (/mL/2 h). The extent of inhibition of the reaction is determined from the amount of angiotensin I generated in reference to a control prepared without inhibitor. Nonlinear regression analysis is used to calculate the IC50 values, i.e. the molar concentration of the test compound required to cause a 50% inhibition of the enzyme activity.
For the molecule `CC(C)C[C@H](O)[C@H](O)[C@H](CC1CCCCC1)NC(=O)[C@@H](CC(=O)N(CC1CC1)CC1(O)CCCCC1)CC1CC1` [Compound 16, N^4-(cyclopropylmethyl)-N^4-[(1-hydroxycyclohexyl)methyl]-N^1-[1(S)-(cyclohexylmethyl)-2(R),3(S)-dihydroxy-5-methylhexyl]-2(R)-(cyclopropylmethyl)butanediamide], the IC50 was determined as 89 nM.
The value for `CC(C)C[C@H](O)[C@H](O)[C@H](CC1CCCCC1)NC(=O)[C@@H](CC(=O)NCC1(O)CCCCC1)CC1CC1` [Compound 17, N^4-[(1-hydroxycyclohexyl)methyl]-N^1-[1(S)-(cyclohexylmethyl)-2(R),3(S)-dihydroxy-5-methylhexyl]-2(R)-(cyclopropylmethyl)butanediamide] was 94 nM; that for `CC(C)C[C@H](O)[C@H](O)[C@H](CC1CCCCC1)NC(=O)[C@@H](CC(=O)N[C@@H](CO)[C@@H](O)c1ccccc1)CC1CC1` [Compound 18, N^4-[2(S)-hydroxy-1(S)-(hydroxymethyl)-2-phenylethyl]-N^1-[1(S)-(cyclohexylmethyl)-2(R),3(S)-dihydroxy-5-methylhexyl]-2(R)-(cyclopropylmethyl)butanediamide] was 95 nM; that for `CC(C)C[C@H](O)[C@H](O)[C@H](CC1CCCCC1)NC(=O)[C@@H](CC(=O)N(Cc1ccccn1)CC1(O)CCC(=O)CC1)CC1CC1` [Compound 19, N^4-[(1-hydroxy-4-oxocyclohexyl)methyl]-N^4-(2-pyridinylmethyl)-N^1-[1(S)-(cyclohexylmethyl)-2(R),3(S)-dihydroxy-5-methylhexyl]-2(R)-(cyclopropylmethyl)butanediamide] was 100 nM.
The value for `CC(C)C[C@H](O)[C@H](O)[C@H](CC1CCCCC1)NC(=O)[C@@H](CC(=O)NC[C@H](O)C1CCCCC1)CC1CC1` [Compound 20 (R), N^4-(R)-(2-cyclohexyl-2-hydroxyethyl)-N^1-[1(S)-(cyclohexylmethyl)-2(R),3(S)-dihydroxy-5-methylhexyl]-2(R)-(cyclopropylmethyl)butanediamide] was 115 nM; that for `CC(C)C[C@H](O)[C@H](O)[C@H](CC1CCCCC1)NC(=O)[C@@H](CC(=O)NC[C@@H](O)C1CCCCC1)CC1CC1` [Compound 20 (S), N^4-(S)-(2-cyclohexyl-2-hydroxyethyl)-N^1-[1(S)-(cyclohexylmethyl)-2(R),3(S)-dihydroxy-5-methylhexyl]-2(R)-(cyclopropylmethyl)butanediamide] was 150 nM.
Take `CC(C)C[C@H](O)[C@H](O)[C@H](CC1CCCCC1)NC(=O)[C@@H](CC(=O)N(Cc1ccccc1)CC(C)(C)O)CC1CC1` [Compound 21, N^4-benzyl-N^4-(2-hydroxy-2-methylpropyl)-N^1-[1(S)-(cyclohexylmethyl)-2(R),3(S)-dihydroxy-5-methylhexyl]-2(R)-(cyclopropylmethyl)butanediamide]: 130 nM corresponded to half-maximal inhibition (IC50).
Turning to `CC(C)C[C@H](O)[C@H](O)[C@H](CC1CCCCC1)NC(=O)[C@@H](CC(=O)N(CC(=O)N(C)C)CC1(O)CCCCC1)CC1CC1` [Compound 23, N^4-[(1-hydroxycyclohexyl)methyl]-N^4-[2-(dimethylamino)-2-oxoethyl]-N^1-[1(S)-(cyclohexylmethyl)-2(R),3(S)-dihydroxy-5-methylhexyl]-2(R)-(cyclopropylmethyl)butanediamide], the IC50 was determined as 16 nM. Against the preceding molecule, the IC50 is about 8.1-fold lower.
The value for `CC(C)C[C@H](O)[C@H](O)[C@H](CC1CCCCC1)NC(=O)[C@@H](CC(=O)N(CC(=O)N(C)C)CC1(O)CCCCC1)Cc1c[nH]cn1` [Compound 24, N^4-[(1-hydroxycyclohexyl)methyl]-N^4-[2-(dimethylamino)-2-oxoethyl]-N^1-[1(S)-(cyclohexylmethyl)-2(R),3(S)-dihydroxy-5-methylhexyl]-2(R)-(1H-imidazol-4-ylmethyl)-butanediamide] was 1.8 nM; that for `CC(C)C[C@H](O)[C@H](O)[C@H](CC1CCCCC1)NC(=O)[C@@H](CC(=O)N(CC1CCCCC1)CC1(O)CCCCC1)CC1CC1` [Compound 25, N^4-(cyclohexylmethyl)-N^4-[(1-hydroxycyclohexyl)methyl]-N^1-[1(S)-(cyclohexylmethyl)-2(R),3(S)-dihydroxy-5-methylhexyl]2(R)-(cyclopropylmethyl)butanediamide] was 79 nM.
The molecule `CC(C)C[C@H](O)[C@H](O)[C@H](CC1CCCCC1)NC(=O)[C@@H](CC(=O)N(Cc1cccnc1)CC1(O)CCCCC1)CC1CC1` [Compound 26, N^4-[(1-hydroxycyclohexyl)methyl]-N^4-(3-pyridinylmethyl)-N^1-[1(S)-(cyclohexylmethyl)-2(R),3(S)-dihydroxy-5-methylhexyl]-2(R)-(cyclopropylmethyl)butanediamide] came in with an IC50 of 26 nM. This IC50 is about 3-fold lower than that of the molecule before.
The value for `CC(C)C[C@H](O)[C@H](O)[C@H](CC1CCCCC1)NC(=O)[C@@H](CC(=O)N(Cc1ccccc1)CC1(O)CCCCC1)Cc1cscn1` [Compound 27, N^4-benzyl-N^4-[ (1-hydroxycyclohexyl)methyl]-N^1-[1(S)-(cyclohexylmethyl)-2(R),3(S)-dihydroxy-5-methylhexyl]-2(R)-(4-thiazolylmethyl)butanediamide] was 15 nM.
The value for `CC(C)C[C@H](O)[C@H](O)[C@H](CC1CCCCC1)NC(=O)[C@@H](CC(=O)N(Cc1ccccc1)CC1(O)CCCCC1)Cc1c[nH]cn1` [Compound 28] was 53 nM.
The value for `CC(C)C[C@H](O)[C@H](O)[C@H](CC1CCCCC1)NC(=O)[C@@H](CC(=O)N(Cc1ccncc1)CC1(O)CCCCC1)CC1CC1` [Compound 29] was 31 nM; that for `CC(C)C[C@H](O)[C@H](O)[C@H](CC1CCCCC1)NC(=O)[C@@H](CC(=O)N(C)CC1(O)CCCCC1)Cc1cscn1` [Compound 30, N^4-[(1-hydroxycyclohexyl)methyl]-N^4-methyl-N^1-[1(S)-(cyclohexylmethyl)-2(R),3(S)-dihydroxy-5-methylhexyl]-2(R)-(4-thiazolylmethyl)butanediamide] was 12 nM.
Regarding `CC(C)C[C@H](O)[C@H](O)[C@H](CC1CCCCC1)NC(=O)[C@@H](CC(=O)N(CCO)CC1CCCCC1)CC1CC1` [Compound 31, N^4-(cyclohexylmethyl)-N^4-(2-hydroxyethyl)-N^1-[1(S)-(cyclohexylmethyl)-2(R),3(S)-dihydroxy-5-methylhexyl]-2(R)-(cyclopropylmethyl)butanediamide], the IC50 was found to be 100 nM.
The value for `CC(C)C[C@H](O)[C@H](O)[C@H](CC1CCCCC1)NC(=O)[C@@H](CC(=O)N(CC1CCCCC1)CC(C)(C)O)CC1CC1` [Compound 32, N^4-(cyclohexylmethyl)-N^4-(2-hydroxy-2-methylpropyl)-N^1-[1(S)-(cyclohexylmethyl)-2(R),3(S)-dihydroxy-5-methylhexyl]-2(R)-(cyclopropylmethyl)butanediamide] was 46 nM.
The molecule `CC(C)C[C@H](O)[C@H](O)[C@H](CC1CCCCC1)NC(=O)[C@@H](CC(=O)N(Cc1ccc2c(c1)OCO2)CC1(O)CCCCC1)Cc1cscn1` [Compound 33, N^4-[(1-hydroxycyclohexyl)methyl]-N^4-[(3,4-methylenedioxyphenyl)methyl]-N^1-[1(S)-(cyclohexylmethyl)-2(R),3(S)-dihydroxy-5-methylhexyl]-2(R)-(4-thiazolylmethyl)butanediamide] yielded an IC50 of 11 nM.
The value for `CC(C)C[C@H](O)[C@H](O)[C@H](CC1CCCCC1)NC(=O)[C@@H](CC(=O)N(CC(=O)N(C)C)CC1(O)CCCCC1)Cc1cscn1` [Compound 34, N^4-[(1-hydroxycyclohexyl)methyl]-N^4-[2-(dimethylamino)-2-oxoethyl]-N^1-[1(S)-(cyclohexylmethyl)-2(R),3(S)-dihydroxy-5-methylhexyl]-2(R)-(4-thiazolylmethyl)butanediamide] was 1.6 nM; that for `CC(C)C[C@H](O)[C@H](O)[C@H](CC1CCCCC1)NC(=O)[C@@H](CC(=O)N(C)CC1(O)CCCCC1)Cc1c[nH]cn1` [Compound 35, N^4-[(1-hydroxycyclohexyl)methyl]-N^4-methyl-N^1-[1(S)-(cyclohexylmethyl)-2(R),3(S)-dihydroxy-5-methylhexyl]-2(R)-(1H-imidazol-4-ylmethyl)-butanediamide] was 67 nM; that for `CC(C)C[C@H](O)[C@H](O)[C@H](CC1CCCCC1)NC(=O)[C@@H](CC(=O)N(CC1CCCCC1)CC(C)(C)O)Cc1cscn1` [Compound 36, N^4-(cyclohexylmethyl)-N^4-(2-hydroxy-2-methylpropyl)-N^1-[1(S)-(cyclohexylmethyl)-2(R),3(S)-dihydroxy-5-methylhexyl]-2(R)-(4-thiazolylmethyl)butanediamide] was 7.1 nM.

Source of the values: patent US5523315A, “N-(hydroxyethyl)butanediamide derivatives” (Bio-Mega/Boehringer Ingelheim Research Inc., priority 1993, dated 1996).
